How the values were obtained:
T-24 and HT-1197 = assay: Form of Gem-induced cell death, Bcl-2 overexpression; assay type: cell-based; details: inhibited by Bcl-2 overexpression
Experimental: (§1) Cell culture, cell death assays and growth assays—The T-24 and HT-1376 cell lines were purchased from the German Collection of Microorganisms and Cell Cultures and were cultivated in DMEM, high glucose, containing 10% Fetal Bovine Serum (FBS) or Minimum Essential Medium with 10% FBS and non-essential amino acids, respectively. HT-1197 was a gift from Bioxell (Milano) and was cultured like HT-1376. […] HT-1376 and its clones were incubated for 4 days and HT-1197 for 5 days with Gem including one medium change after 2 days. The percentage of dead cells that took up propidium iodide was determined using flow cytometry. […] Staining with Annexin-V-FITC was performed according to the manufacturer's description (Roche). To assess the cell number by staining with 3-(4,5-Dimethylthiazol-2-yl)-2,5-diphenyltetrazolium bromide (MTT), MTT was added at 500 μg/ml. After 2 hours, precipitate was solubilized by addition of 0.04N HCl/Isopropanol. Absorbance was read at 570 nm with reference at 650 nm.
In HT-1376, apoptosis could not be inhibited by Bcl-2. However, this might be attributed to the relatively low overexpression of Bcl-2 (Supplementary FIG. 1).

[1] = test system: eIF2α, eukaryotic initiation factor 4E binding protein 1, ribosomal protein S6; assay: Phosphorylation state of translation regulators upon Gem treatment; assay type: cell-based
Experimental: Quantitative real-time PCR and immunoblotting—We used the same RNA that was isolated for the DNA microarrays and prepared cDNA using Applied Biosystem (ABI) Reverse Transcription Reagents with random hexamer primers. Real-time PCR was performed using the PCR Master Mix (ABI) and ready-made TaqMan expression assays on an ABI Prism 7000. […] For this clone set, we used another “house-keeping gene”, HPRT1, for normalizing the expression values. Expression levels were calculated according to the formula: 1000*2^([…]). Cell lysis for protein extraction was performed on the same day as metabolic labelling. Immunoblotting was done as described previously (Abraham et al., 2005).

[2] = test system: T-24, HT-1376 and HT-1197 cell lines and clones; assay: Metabolic labelling of protein synthesis with 35S-methionine/cysteine; assay type: cell-based
Experimental: Cells were labelled for 1.5 hours in growth medium without methionine and cysteine supplemented with 30 μCi/ml [^35S]-methionine/cysteine. Subsequently, the proteins were precipitated with TCA as described previously (Zhang et al., 2004). The incorporated radioactivity was expressed as counts/μg protein.
FIG. 3. Protein synthesis in the presence of Gem is higher in the resistant clones. […] Medium was removed and replaced for 1.5 h by medium containing 30 μCi/ml ^35S-methionine/cysteine (pulse). […] The reduction in radioactively labelled proteins due to protein degradation during the chase was significant as indicated. (B) The three parental cell lines and HT-1197 and T-24 stably expressing Bcl-2 were incubated with Gem as in (A) in the presence of 40 μM (T-24, HT-1376) or 80 μM z-VAD-fmk (HT-1197) or vehicle (DMSO). Subsequently, the cells were labelled as before. (C) Two sensitive and two resistant clones of each clone set were incubated and labelled as in (A). […] Results are from two independent experiments in duplicate. Error bars depict S.E.M. **P<0.01.
FIG. 5. Protein synthesis inhibitors diminish Gem resistance. (A) Two sensitive and two resistant clones of each clone set were incubated with Gem (T-24: 30 nM, 2 days; HT-1376: 80 nM, 4 days; HT-1197: 120 nM, 5 days). […] Cell death was measured by propidium iodide dye exclusion using flow cytometry. (B) The parental cell lines were incubated with Gem (T-24: 30 nM Gem, 1 day; HT-1376: 80 nM, 3 days; HT-1197: 120 nM, 3 days) in the absence or presence of the indicated protein synthesis inhibitors (250 μg/ml G418 for T-24, 80 μg/ml for HT-1376, 70 μg/ml for HT-1197; 500 ng/ml CHX for all cell lines; 10 nM rapamycin for all cell lines). Subsequently, cells were labeled with 30 μCi/ml ^35S-methionine/cysteine. (C) The parental cell lines were incubated with Gem like for the selection of the Gem-resistant clones and additionally G418 was added at 250 μg/ml (T-24), 80 μg/ml G418 (HT-1376) or 70 μg/ml G418 (HT-1197). Afterward, the remaining cells on the culture plate were stained with crystal violet. A representative assay is shown. All other data are from two independent experiments in duplicate. Error bars represent S.E.M. **P-<0.01, ***p<0.001.

[3] = test system: clones of T-24, HT-1376 and HT-1197 bladder cancer cell lines; assay: Cell death by propidium iodide dye exclusion (flow cytometry) in Gem-sensitive and Gem-resistant clones; assay type: cell-based; details: 2 sensitive and 2 resistant clones per clone set; Gem 30 nM 2 days (T-24), 80 nM 4 days (HT-1376), 120 nM 5 days (HT-1197); G418 250 or 70 μg/ml, cycloheximide 500 ng/ml, rapamycin 10 nM
Experimental: as §1
Generation of Gemcitabine-resistant clones and stable cell lines—The T-24 cell line was incubated with 120 nM Gem for 3 days, HT-1376 with 160 nM Gem and HT-1197 with 1.6 μM for 7 days. […] Subsequently, the medium was changed for normal growth medium without Gem and the cells were grown for additional 1 to 3 weeks. […]
FIG. 5. […] Cell death was measured by propidium iodide dye exclusion using flow cytometry. […]

[4] = concentrations comparable to the concentrations used by the applicant; cited from earlier work
[5] = test system: T-24, HT-1197, HT-1376, MCF-7, A-549 and AsPC-1 cancer cell lines; assay: EC50 for Gem-induced cell death or growth inhibition with G418 at fixed concentrations; assay type: cell-based; details: G418 at fixed concentrations with no or little effect on their own; Gem 2 to 5 days
Experimental: as §1, with “To assess the cell number by staining with 3-(4,5-Dimethylthiazol-2-yl)-2,5-diphenyltetrazolium bromide (MTT), MTT was added at 500 μg/ml. After 2 hours, precipitate was solubilized by addition of 0.04N HCl/Isopropanol.” left out
G418 enhances Gem-induced cell death or growth inhibition in various cancer cell lines—Since enhancing Gem action would benefit therapy, we tested whether supplementing Gem with G418 could augment the effect of Gem also in other cancer cell lines. To this end, we added G418 at fixed concentrations and determined the EC50 value for Gem-induced cell death. […]
FIG. 6. […] Cell death was measured by propidium iodide dye exclusion except for MCF-7 and AsPC-1 where cell number was measured by MTT-assay. […]

Nc1ccn([C@@H]2O[C@H](CO)[C@@H](O)C2(F)F)c(=O)n1 [Gem, 2′-2′-difluorodeoxycytidine]
Form of cell death induced by Gem (T-24 and HT-1197): induced an apoptotic form of cell death | Phosphorylation state upon Gem treatment [1]: neither eIF2α nor eukaryotic initiation factor 4E binding protein 1 nor ribosomal protein S6 changed phosphorylation state | Protein synthesis upon Gem treatment of the parental cell lines ([2]; T-24 30 nM 1 day, HT-1376 80 nM 3 days, HT-1197 120 nM 3 days): protein synthesis was reduced | Protein synthesis upon Gem treatment, resistant versus sensitive clones ([2]; two resistant and two sensitive clones of each clone set): decreased protein synthesis significantly less in the resistant clones compared to the sensitive clones

C[C@@H]1C[C@@H]([C@H](O)CC2CC(=O)NC(=O)C2)C(=O)[C@@H](C)C1 [cycloheximide]
Gem-induced cell death on concomitant treatment with a protein synthesis inhibitor [3]: inhibited Gem-induced cell death | Protein synthesis in the presence of Gem plus a protein synthesis inhibitor ([2]; parental cell lines, Gem 30 nM 1 day (T-24), 80 nM 3 days (HT-1376), 120 nM 3 days (HT-1197), G418 250/80/70 μg/ml, CHX 500 ng/ml, rapamycin 10 nM): increased protein synthesis compared to Gem alone

CN[C@@H]1[C@@H](O)[C@@H](O[C@@H]2[C@@H](O)[C@H](O[C@H]3O[C@H]([C@@H](C)O)[C@@H](O)[C@H](O)[C@H]3N)[C@@H](N)C[C@H]2N)OC[C@]1(C)O [G418]
Effects of G418 treatment on mice [4]: without detectable effects on mice | Decrease of the EC50 value for Gem-induced cell death by addition of G418 [5]: up to 30 fold

z-VAD-fmk
Protein synthesis rates with Gem in the presence of the caspase inhibitor ([2]; 40 μM (T-24, HT-1376) or 80 μM (HT-1197) z-VAD-fmk): did not alter the protein synthesis rates with Gem

— patent US20100004193A1, “COMBINATION THERAPY” (FONDAZIONE PER LA RICERCA BIOMEDICA AVANZATA ONLUS - …, priority 2008, published 2010)
